SMILES strings stand for the structures.

The source of these data is patent US20250145587A1, “BROMODOMAIN INHIBITORS” (AbbVie Inc., priority 2016, published 2025).

For the test, the target named is BRD4 (BDI_K57-E168) (Homo sapiens, UniProt O60885). Put plainly: TR-FRET bromodomain binding assay, BRD4 first bromodomain (BDI). As to the method:
A time-resolved fluorescence resonance energy transfer (TR-FRET) assay was used to determine the affinities of compounds of the Examples listed in Table 1 for each bromodomain of BRD4. […] An Alexa647-labeled BET-inhibitor was used as the fluorescent probe in the assay.
Compound dilution series were prepared in DMSO via an approximately 3-fold serial dilution. Compound dilutions were added directly into white, low-volume assay plates (Perkin Elmer Proxiplate 384 Plus #6008280) using a Labcyte Echo in conjunction with Labcyte Access and Thermo Multidrop CombinL robotics. Compounds were then suspended in eight microliters (μL) of assay buffer (20 mM Sodium Phosphate, pH 6.0, 50 mM NaCl, 1 mM Ethylenediaminetetraacetic acid disodium salt dihydrate, 0.01% Triton X-100, 1 mM DL-Dithiothreitol) containing His-tagged bromodomain, Europium-conjugated anti-His antibody (Invitrogen PV5596) and Alexa-647-conjugated probe.
After a one-hour equilibration at room temperature, TR-FRET ratios were determined using an Envision multilabel plate reader (Ex 340, Em 495/520).
TR-FRET data were normalized to the means of 24 no-compound controls (“high”) and 8 controls containing 1 μM un-labeled probe (“low”). Percent inhibition was plotted as a function of compound concentration and the data were fit with the 4 parameter logistic equation to obtain IC50s. Inhibition constants (Ki) were calculated from the IC50s, probe Kd and probe concentration.
Compound dilution series for Compounds A-E were prepared in DMSO via an approximately 3-fold serial dilution from 0.47 mM to 7.8 nM.
Compound dilutions were added directly into white, low-volume assay plates (Perkin Elmer Proxiplate 384 Plus #6008280) using a Labcyte Echo in conjunction with Labcyte Access and Thermo Multidrop CombinL robotics. Compounds were then suspended in eight microliters (μL) of assay buffer (20 mM Sodium Phosphate, pH 6.0, 50 mM NaCl, 1 mM Ethylenediaminetetraacetic acid disodium salt dihydrate, 0.01% Triton X-100, 1 mM DL-Dithiothreitol) containing His-tagged bromodomain, Europium-conjugated anti-His antibody (Invitrogen PV5596) and Alexa-647-conjugated probe.
The final concentration of 1× assay mixture contained 2% DMSO, 8 nM His-tagged bromodomain, 1 nM Europium-conjugated anti-His-tag antibody and 100 nM or 30 nM probe (for BDI or BDII, respectively) and compound concentration in the range of […]-150 μM.
TR-FRET data were normalized to the means of 24 no-compound controls (“high”) and 8 controls containing 1 μM un-labeled probe (“low”). Percent inhibition was plotted as a function of compound concentration and the data were fit with the 4 parameter logistic equation to obtain IC50s. Inhibition constants (Ki) were calculated from the IC50s, probe Kd and probe concentration. Typical Z′ values were between 0.65 and 0.75. The minimum significant ratio was determined to evaluate assay reproducibility (Eastwood et al., (2006) J Biomol Screen, 11: 253-261). The MSR was determined to be 2.03 for BDI and 1.93 for BDII, and a moving MSR (last six run MSR overtime) for both BDI and BDII was typically <3.

`CCS(=O)(=O)c1ccc(Oc2c(C)cccc2C)c(-c2cn(C)c(=O)cc2O[C@H]2CC[C@H](NC(C)=O)CC2)c1` [Example 1, N-[trans-4-({5-[2-(2,6-dimethylphenoxy)-5-(ethanesulfonyl)phenyl]-1-methyl-2-oxo-1,2-dihydropyridin-4-yl}oxy)cyclohexyl]acetamide] gave a Ki of 1160 nM. In turn, `CCS(=O)(=O)c1ccc(Oc2c(C)cccc2C)c(-c2cn(C)c(=O)cc2O[C@H]2CC[C@@H](NC(C)=O)CC2)c1` [Example 2, N-[cis-4-({5-[2-(2,6-dimethylphenoxy)-5-(ethanesulfonyl)phenyl]-1-methyl-2-oxo-1,2-dihydropyridin-4-yl}oxy)cyclohexyl]acetamide] showed a Ki of 2800 nM.

`CCS(=O)(=O)c1ccc(Oc2c(C)cccc2C)c(-c2cn(C)c(=O)cc2O[C@H]2CC[C@H](NC(=O)OC)CC2)c1` [Example 3, methyl [trans-4-({5-[2-(2,6-dimethylphenoxy)-5-(ethanesulfonyl)phenyl]-1-methyl-2-oxo-1,2-dihydropyridin-4-yl}oxy)cyclohexyl]carbamate] came in with a Ki of 1050 nM. Take `CCS(=O)(=O)c1ccc(Oc2c(C)cccc2C)c(-c2cn(C)c(=O)cc2O[C@H]2CC[C@H](NS(C)(=O)=O)CC2)c1` [Example 4, N-[trans-4-({5-[2-(2,6-dimethylphenoxy)-5-(ethanesulfonyl)phenyl]-1-methyl-2-oxo-1,2-dihydropyridin-4-yl}oxy)cyclohexyl]methanesulfonamide]: the Ki was found to be 1050 nM.

In turn, `CCS(=O)(=O)c1ccc(Oc2c(C)cccc2C)c(-c2cn(C)c(=O)cc2O[C@H]2CC[C@H](NC(=O)OC(C)(C)C)CC2)c1` [Example 5, tert-butyl [trans-4-({5-[2-(2,6-dimethylphenoxy)-5-(ethanesulfonyl)phenyl]-1-methyl-2-oxo-1,2-dihydropyridin-4-yl}oxy)cyclohexyl]carbamate] gave a Ki of 1280 nM. `CCS(=O)(=O)c1ccc(Oc2c(C)cccc2C)c(-c2cn(C)c(=O)cc2O[C@H]2CC[C@H](NC(=O)C(F)(F)F)CC2)c1` [Example 6, N-[trans-4-({5-[2-(2,6-dimethylphenoxy)-5-(ethanesulfonyl)phenyl]-1-methyl-2-oxo-1,2-dihydropyridin-4-yl}oxy)cyclohexyl]-2,2,2-trifluoroacetamide] registered a Ki of 823 nM. For the compound `CCC(=O)N[C@H]1CC[C@H](Oc2cc(=O)n(C)cc2-c2cc(S(=O)(=O)CC)ccc2Oc2c(C)cccc2C)CC1` [Example 7, N-[trans-4-({5-[2-(2,6-dimethylphenoxy)-5-(ethanesulfonyl)phenyl]-1-methyl-2-oxo-1,2-dihydropyridin-4-yl}oxy)cyclohexyl]propanamide], the Ki stood at 489 nM.

For `CCS(=O)(=O)c1ccc(Oc2c(C)cccc2C)c(-c2cn(C)c(=O)cc2O[C@H]2CC[C@H](NC(=O)C(C)(C)C)CC2)c1` [Example 8, N-[trans-4-({5-[2-(2,6-dimethylphenoxy)-5-(ethanesulfonyl)phenyl]-1-methyl-2-oxo-1,2-dihydropyridin-4-yl}oxy)cyclohexyl]-2,2-dimethylpropanamide], the Ki came to 627 nM.

With `CCS(=O)(=O)c1ccc(Oc2c(C)cccc2C)c(-c2cn(C)c(=O)cc2O[C@H]2CC[C@H](NC(=O)COC)CC2)c1` [Example 9, N-[trans-4-({5-[2-(2,6-dimethylphenoxy)-5-(ethanesulfonyl)phenyl]-1-methyl-2-oxo-1,2-dihydropyridin-4-yl}oxy)cyclohexyl]-2-methoxyacetamide], the affinity, expressed as Ki, was 474 nM. Then `CCS(=O)(=O)c1ccc(Oc2c(C)cccc2C)c(-c2cn(C)c(=O)cc2O[C@H]2CC[C@H](NC(=O)C3(C)CC3)CC2)c1` [Example 10, N-[trans-4-({5-[2-(2,6-dimethylphenoxy)-5-(ethanesulfonyl)phenyl]-1-methyl-2-oxo-1,2-dihydropyridin-4-yl}oxy)cyclohexyl]-1-methylcyclopropane-1-carboxamide], with 524 nM; and `CCS(=O)(=O)c1ccc(Oc2c(C)cccc2C)c(-c2cn(C)c(=O)cc2O[C@H]2CC[C@H](NC(=O)C3CC3)CC2)c1` [Example 11, N-[trans-4-({5-[2-(2,6-dimethylphenoxy)-5-(ethanesulfonyl)phenyl]-1-methyl-2-oxo-1,2-dihydropyridin-4-yl}oxy)cyclohexyl]cyclopropanecarboxamide], with 773 nM.

`CCS(=O)(=O)c1ccc(Oc2c(C)cccc2C)c(-c2cn(C)c(=O)cc2O[C@H]2CC[C@H](NC(=O)C3(C)COC3)CC2)c1` [Example 12, N-[trans-4-({5-[2-(2,6-dimethylphenoxy)-5-(ethanesulfonyl)phenyl]-1-methyl-2-oxo-1,2-dihydropyridin-4-yl}oxy)cyclohexyl]-3-methyloxetane-3-carboxamide] yielded a Ki of 301 nM. The figure for `CCS(=O)(=O)c1ccc(Oc2c(C)cccc2C)c(-c2cn(C)c(=O)cc2O[C@H]2CC[C@H](NC(=O)C3CC(F)(F)C3)CC2)c1` [Example 13, N-[trans-4-({5-[2-(2,6-dimethylphenoxy)-5-(ethanesulfonyl)phenyl]-1-methyl-2-oxo-1,2-dihydropyridin-4-yl}oxy)cyclohexyl]-3,3-difluorocyclobutane-1-carboxamide] is 462 nM; for `CCS(=O)(=O)Nc1ccc(Oc2c(C)cc(C(C)(C)O)cc2C)c(-c2cn(C)c(=O)cc2O[C@H]2CC[C@H](NC(C)=O)CC2)c1` [Example 14, N-{trans-4-[(5-{5-[(ethanesulfonyl)amino]-2-[4-(2-hydroxypropan-2-yl)-2,6-dimethylphenoxy]phenyl}-1-methyl-2-oxo-1,2-dihydropyridin-4-yl)oxy]cyclohexyl}acetamide] it is 95.3 nM; for `CCS(=O)(=O)Nc1ccc(Oc2c(C)cc(C(C)(C)O)cc2C)c(-c2cn(C)c(=O)cc2O[C@H]2CC[C@H](NC(=O)OC)CC2)c1` [Example 15, methyl {trans-4-[(5-{5-[(ethanesulfonyl)amino]-2-[4-(2-hydroxypropan-2-yl)-2,6-dimethylphenoxy]phenyl}-1-methyl-2-oxo-1,2-dihydropyridin-4-yl)oxy]cyclohexyl}carbamate] it is 102 nM. The figure for `CCS(=O)(=O)Nc1ccc(Oc2c(C)cc(F)cc2C)c(-c2cn(C)c(=O)cc2O[C@H]2CC[C@H](NC(=O)OC)CC2)c1` [Example 16, methyl {trans-4-[(5-{5-[(ethanesulfonyl)amino]-2-(4-fluoro-2,6-dimethylphenoxy)phenyl}-1-methyl-2-oxo-1,2-dihydropyridin-4-yl)oxy]cyclohexyl}carbamate] is 313 nM; for `CCS(=O)(=O)Nc1cnc(Oc2c(C)cc(F)cc2C)c(-c2cn(C)c(=O)cc2O[C@H]2CC[C@H](NC(=O)OC)CC2)c1` [Example 17, methyl [trans-4-({5′-[(ethanesulfonyl)amino]-2′-(4-fluoro-2,6-dimethylphenoxy)-1-methyl-6-oxo[1,6-dihydro[3,3′-bipyridine]]-4-yl}oxy)cyclohexyl]carbamate] it is 419 nM. The figure for `COC(=O)N[C@H]1CC[C@H](Oc2cc(=O)n(C)cc2-c2cc(CS(C)(=O)=O)ccc2Oc2c(C)cc(F)cc2C)CC1` [Example 18, methyl {trans-4-[(5-{2-(4-fluoro-2,6-dimethylphenoxy)-5-[(methanesulfonyl)methyl]phenyl}-1-methyl-2-oxo-1,2-dihydropyridin-4-yl)oxy]cyclohexyl}carbamate] is 903 nM; for `CCS(=O)(=O)c1ccc(Oc2c(C)cc(F)cc2C)c(-c2cn(C)c(=O)cc2O[C@H]2CC[C@H](N3CCCC3=O)CC2)c1` [Example 19, 5-[5-(ethanesulfonyl)-2-(4-fluoro-2,6-dimethylphenoxy)phenyl]-1-methyl-4-{[trans-4-(2-oxopyrrolidin-1-yl)cyclohexyl]oxy}pyridin-2(1H)-one] it is 615 nM; for `CCS(=O)(=O)c1ccc(Oc2c(C)cc(F)cc2C)c(-c2cn(C)c(=O)cc2O[C@H]2CC[C@H](N(C)C(C)=O)CC2)c1` [Example 20, N-[trans-4-({5-[5-(ethanesulfonyl)-2-(4-fluoro-2,6-dimethylphenoxy)phenyl]-1-methyl-2-oxo-1,2-dihydropyridin-4-yl}oxy)cyclohexyl]-N-methylacetamide] it is 461 nM.
